≈ marks a conversion by molar mass, not a printed value.
Assays:
in vitro = settings: human, Caco-2
[1] = system: Cryptococcus neoformans (DSM11959); test: MIC assay against C. neoformans; assay type: cell-based; settings: 35 °C, 24–48 h
[2] = system: various human cells, i.e., A498, BEAS-2B, Caco-2, HaCaT, and HepG2
[3] = Cytotoxicity, resazurin cell viability assay, HepG2; settings: human
[4] = Cytotoxicity, resazurin cell viability assay, BEAS-2B; settings: human
[5] = Cytotoxicity, resazurin cell viability assay, Caco-2; settings: human
[6] = Cytotoxicity, resazurin cell viability assay, HaCaT; settings: human
[7] = Cytotoxicity, resazurin cell viability assay, A498; settings: human
[8] = system: Candida auris (DSM 21092); test: MIC assay, pathogenic yeast C. auris; assay type: cell-based; settings: Candidozyma auris, DSM21092, 35 °C, 24–48 h
[9] = system: Colletotrichum graminicola (DSM 63127); test: MIC assay, filamentous fungus C. graminicola; assay type: cell-based; settings: DSM63127, DSM 63127, plant pathogen, 25 °C, 48–72 h
[10] = system: Trichophyton rubrum (DSM16111); test: MIC assay, filamentous fungus T. rubrum; assay type: cell-based; settings: DSM16111, human pathogen, 35 °C, 24–48 h
[11] = system: Candida glabrata (DSM 11226); test: MIC assay, pathogenic yeast C. glabrata; assay type: cell-based; settings: Nakaseomyces glabratus, DSM11226, 35 °C, 24–48 h
[12] = system: Microdochium bolleyi (DSM 62073); test: MIC assay, filamentous fungus M. bolleyi; assay type: cell-based; settings: DSM62073, DSM 62073, plant pathogen, 25 °C, 48–72 h
[13] = system: Aspergillus flavus (DSM 1959); test: MIC assay, filamentous fungus A. flavus; assay type: cell-based; settings: DSM1959, DSM 1959, plant pathogen, 25 °C, 48–72 h
[14] = system: Penicillium verrucosum (DSM 12639); test: MIC assay, filamentous fungus P. verrucosum; assay type: cell-based; settings: DSM12639, DSM 12639, plant pathogen, 25 °C, 48–72 h
[15] = system: Fusarium graminearum (DSM 1095); test: microbe, parasite or virus in culture; assay type: cell-based; settings: DSM1095, read-out: MIC F. graminearum
[16] = system: Candida tropicalis (DSM 9419); test: MIC assay, pathogenic yeast C. tropicalis; assay type: cell-based; settings: DSM9419, 35 °C, 24–48 h
Magnaporthe oryzae = test: microbe, parasite or virus in culture; assay type: cell-based; settings: Pyricularia oryzae, read-out: MIC M. oryzae
A. fumigatus (DSM 819) = test: MIC assay, filamentous fungus A. fumigatus; assay type: cell-based; settings: Aspergillus fumigatus, DSM819; DSM 819, human pathogen; 35 °C, 24–48 h
[17] = system: Candida albicans (DSM 10697); test: MIC assay, pathogenic yeast C. albicans; assay type: cell-based; settings: DSM10697, 35 °C, 24–48 h
[18] = system: Acinetobacter baumannii (DSM 30007); test: Antibacterial liquid MIC determination, A. baumannii; assay type: cell-based; settings: DSM30007, Gram-negative
[19] = system: Enterobacter cloacae (DSM 30054); test: Antibacterial liquid MIC determination, E. cloacae; assay type: cell-based; settings: DSM30054, Gram-negative
[20] = system: Staphylococcus aureus (ATCC 6538); test: Antibacterial liquid MIC determination, S. aureus; assay type: cell-based; settings: ATCC6538, Gram-positive
[21] = Cryptococcus neoformans, DSM11959, C. neoformans DSM 11959, lowest concentration totally inhibiting growth
[22] = C. neoformans DSM 11959, lowest concentration totally inhibiting growth

Compound: CCN1C/C(=C\c2ccc(OC)cc2)C(=O)/C(=C/c2ccc(OC)cc2)C1 [1a, 1-ethyl-3,5-bis((E)-4-methoxybenzylidene)piperidin-4-one]
- CC50 at 48 h (in vitro): 314 µM
- MIC [1, 21]: 125 µM (≈ 45.4 µg/mL)
- CC50 (range depending on the cell model) [2]: 64.9 to >1000

Compound: CCN1C/C(=C\c2ccc(C)cc2)C(=O)/C(=C/c2ccc(C)cc2)C1 [1b, 1-ethyl-3,5-bis((E)-4-methylbenzylidene)piperidin-4-one]
- CC50 at 48 h (in vitro): 86.2 µM
- MIC [1, 21]: 250 µM (≈ 82.9 µg/mL)

Compound: CCN1C/C(=C\c2ccc(C#N)cc2)C(=O)/C(=C/c2ccc(C#N)cc2)C1 [1c]
- CC50 at 48 h (in vitro): 70.3 µM
- MIC [1, 21]: 250 µM (≈ 88.4 µg/mL)

Compound: CCN1C/C(=C\c2ccc([N+](=O)[O-])cc2)C(=O)/C(=C/c2ccc([N+](=O)[O-])cc2)C1 [1d]
- MIC [1, 21]: 250 µM (≈ 98.3 µg/mL)
- CC50 at 48 h [3]: 314 µM
- CC50 at 48 h [4]: 364 µM
- CC50 at 48 h [5]: 95.4 µM
- CC50 at 48 h [6]: 163 µM
- CC50 at 48 h [7]: 486 µM

Compound: CCN1C/C(=C\c2ccc(Cl)cc2)C(=O)/C(=C/c2ccc(Cl)cc2)C1 [1e]
- CC50 at 48 h (in vitro): 98.6 µM
- MIC [1, 21]: 250 µM (≈ 93.1 µg/mL)

Compound: CCN1C/C(=C\c2ccc(C(F)(F)F)cc2)C(=O)/C(=C/c2ccc(C(F)(F)F)cc2)C1 [1f]
- CC50 at 48 h (in vitro): 47 µM
- MIC [1, 21]: 250 µM (≈ 110 µg/mL)

Compound: CCN1C/C(=C\c2ccc(OC)cc2OC)C(=O)/C(=C/c2ccc(OC)cc2OC)C1 [2a, 3,5-bis((E)-2,4-dimethoxybenzylidene)-1-ethylpiperidin-4-one]
- MIC [1, 22]: >250 µM
- MIC [1, 21]: > 250 µM

Compound: C=CCOc1ccc(/C=C2\CN(CC)C/C(=C\c3ccc(OCC=C)cc3OCC=C)C2=O)c(OCC=C)c1 [2g]
- MIC [1, 22]: >250 µM
- MIC [1, 21]: > 250 µM

Compound: CCCCOc1ccc(/C=C2\CN(CC)C/C(=C\c3ccc(OCCCC)cc3OCCCC)C2=O)c(OCCCC)c1 [2h, 3,5-bis((E)-2,4-dibutoxybenzylidene) -1-ethylpiperidin-4-one]
- MIC [8]: 31.2 µM (≈ 18.5 µg/mL)
- MIC [9]: > 250 µM
- MIC [10]: 62.5 µM (≈ 37 µg/mL)
- CC50 at 48 h (in vitro): 697 µM
- MIC [1, 21]: 31.2 µM (≈ 18.5 µg/mL)
- MIC [11]: 31.2 µM (≈ 18.5 µg/mL)
- MIC [12]: 62.5 µM (≈ 37 µg/mL)
- MIC [13]: > 250 µM
- MIC [14]: 125 µM (≈ 74 µg/mL)
- MIC [15]: > 250 µM
- MIC [16]: 250 µM (≈ 148 µg/mL)
- MIC (Magnaporthe oryzae): 15.6 µM (≈ 9.23 µg/mL)
- MIC (A. fumigatus (DSM 819)): 125 µM (≈ 74 µg/mL)
- MIC [17]: 250 µM (≈ 148 µg/mL)

Compound: CCN1C/C(=C\c2ccc3c(c2)OCO3)C(=O)/C(=C/c2ccc3c(c2)OCO3)C1 [2i]
- CC50 at 48 h (in vitro): 152 µM
- MIC [1, 21]: 250 µM (≈ 97.9 µg/mL)

Compound: CCN1C/C(=C\c2ccccc2F)C(=O)/C(=C/c2ccccc2F)C1 [2j]
- CC50 at 48 h (in vitro): 68.3 µM
- MIC [1, 21]: 250 µM (≈ 84.8 µg/mL)

Compound: CCN1C/C(=C\c2ccc[nH]2)C(=O)/C(=C/c2ccc[nH]2)C1 [2k]
- MIC [18]: 250 µM (≈ 70.3 µg/mL)
- MIC [1, 21]: 250 µM (≈ 70.3 µg/mL)
- MIC [19]: 250 µM (≈ 70.3 µg/mL)

Compound: CCN1C/C(=C\c2cnc3ccccc3c2)C(=O)/C(=C/c2cnc3ccccc3c2)C1 [2l]
- CC50 at 48 h (in vitro): 30 µM
- MIC [1, 21]: 250 µM (≈ 101 µg/mL)
- MIC [20]: 250 µM (≈ 101 µg/mL)

Compound: CCCCOc1ccc(/C=C2\CN(CC)C/C(=C\c3ccc(OCCCC)c(OCCCC)c3OCCCC)C2=O)c(OCCCC)c1OCCCC [2m]
- MIC [8]: 31.2 µM (≈ 23 µg/mL)
- MIC [9]: > 250 µM
- MIC [10]: 31.2 µM (≈ 23 µg/mL)
- CC50 at 48 h (in vitro): 687 µM
- MIC ([1]; Cryptococcus neoformans, DSM11959, C. neoformans DSM 11959, […]): 62.5 µM (≈ 46 µg/mL)
- MIC [11]: 15.6 µM (≈ 11.5 µg/mL)
- MIC [12]: > 250 µM
- MIC [13]: > 250 µM
- MIC [14]: > 250 µM
- MIC [15]: > 250 µM
- MIC [16]: 250 µM (≈ 184 µg/mL)
- MIC (Magnaporthe oryzae): 62.5 µM (≈ 46 µg/mL)
- MIC (A. fumigatus (DSM 819)): 250 µM (≈ 184 µg/mL)
- MIC [17]: 125 µM (≈ 92 µg/mL)

Reference: PMC12466757, “1,5-Diarylidene-4-Piperidones as Promising Antifungal Candidates Against Cryptococcus neoformans” (Antibiotics, 2025)
